Data from patent US20240131032A1, “AN ACTIVITY-GUIDED MAP OF ELECTROPHILE-CYSTEINE INTERACTIONS IN PRIMARY HUMAN IMMUNE CELLS” (The Scripps Research Institute, priority 2019, published 2024).

Target: T1, BIRC3 (Homo sapiens, UniProt Q13489)
T1 construct: endogenous in cells; host or cells: primary human T cells
Test: isoTOP-ABPP and TMT-ABPP cysteine engagement, BIRC3
Assay type: binding
Procedure: Activated or expanded T cells were re-suspended in RPMI media supplemented with 10% FBS, L-glutamine (2 mM), penicillin (100 U/mL), and streptomycin (100 μg/mL) at 2×10^6 cells/mL. The compounds were added to cells as 1000×DMSO stocks and mixed well with the media by pipetting up and down after addition. The cells were kept at 37° C. in 5% CO2 containing incubators for 3 h (or otherwise specified times), then pelleted by centrifugation (524 g, 5 min, 4° C.), washed with cold PBS (10 mL) and transferred to Eppendorf tubes (1 mL PBS). The cells were pelleted again (524 g, 5 min, 4° C.), flash-frozen, and kept at −80° C. until further analysis.
Activated or expanded primary human T cells were re-suspended in RPMI (1×10^6 cells/mL) containing 10% fetal bovine serum (FBS), penicillin (100 U/mL), streptomycin ([…]), and L-glutamine (2 mM). […] The resulting proteomes were analyzed by competitive isotopic Tandem Orthogonal Proteolysis Activity-Based Protein Profiling (isoTOP-ABPP). […]
The heavy/light isoTOP-ABPP ratios (R values) for each unique peptide (DMSO/compound treated) were quantified with in-house CIMAGE software (Weerapana et al., 2010) using default parameters (3 MS1 acquisitions per peak and signal to noise threshold set to 2.5). Site-specific engagement of cysteine residues was assessed by blockade of IA-alkyne probe labeling. […]

T1 sequence (Q13489 whole entry): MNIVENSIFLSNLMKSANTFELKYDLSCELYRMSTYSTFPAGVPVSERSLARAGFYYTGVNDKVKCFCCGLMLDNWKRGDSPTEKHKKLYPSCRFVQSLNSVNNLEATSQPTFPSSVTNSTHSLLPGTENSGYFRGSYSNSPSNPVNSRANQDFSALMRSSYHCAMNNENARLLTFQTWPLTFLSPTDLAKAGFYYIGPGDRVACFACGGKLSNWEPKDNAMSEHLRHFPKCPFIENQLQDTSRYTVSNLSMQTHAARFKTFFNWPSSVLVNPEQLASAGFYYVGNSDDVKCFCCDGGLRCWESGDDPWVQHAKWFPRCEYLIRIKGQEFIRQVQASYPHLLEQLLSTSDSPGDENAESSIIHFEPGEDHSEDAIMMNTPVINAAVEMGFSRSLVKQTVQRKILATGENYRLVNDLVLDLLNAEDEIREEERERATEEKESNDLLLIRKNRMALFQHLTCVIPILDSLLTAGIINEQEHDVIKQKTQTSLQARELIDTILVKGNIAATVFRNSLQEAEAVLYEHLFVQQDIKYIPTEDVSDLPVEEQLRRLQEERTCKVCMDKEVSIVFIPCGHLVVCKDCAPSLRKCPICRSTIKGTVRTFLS

O=C(CCl)N1CCN(S(=O)(=O)c2ccc(-c3ccncc3)cc2)CC1 [EV-3]
engagement of C28 of BIRC3: unique target
